Assay results from US8415152B2, “Therapeutical composition containing dentritic cells and use thereof” (Helmholtz-Zentrum für Infektionsforschung GmbH, priority 2003, dated 2013).

Legend:
[1] = system: monocyte derived DC; assay: Flow cytometric analysis of DC surface molecules; type: cell-based, human; details: for Surface expression of CD80, CD86, CD40, HLA-DR, CD83 on DC: immature DC of allergics, 48 h incubation
Method: (§1) Monocyte derived DC were generated as previously described (Weigt et al. Immunobiol. 207, 223-233 (2003). Briefly, blood was centrifuged to remove platelets, diluted and layered over Ficoll-Paque (Amersham Pharmacia, Uppsala, Sweden). After density gradient centrifugation, PBMC were collected, and monocytes were enriched using the MACS system and anti-CD14 beads (Miltenyi Biotec, Bergisch Gladbach, Germany). The CD14 positive fraction (monocytes) was cultured in the serum-free medium X-VIVO 15 supplemented with 100 U/ml penicillin and […] streptomycin (all BioWhittaker, Verviers, Belgium). The CD14 negative fraction containing the lymphocytes was cryopreserved in 90% FCS (GIBCO, Eggenstein-Leopoldhafen, Germany) and 10% DMSO (SIGMA, Taufkirchen, Germany). On day 1 and day 5 after isolation, 800 U/m of recombinant GM-CSF and 500 U/ml of recombinant IL-4 (Strathmann Biotec, Hamburg, Germany) were added to the monocyte culture to induce DC.
(§2) On day 5 of the culture, DC were pulsed with affinity purified house dust mite allergen adjusted to a concentration of 100 ng/ml of DerP1 or with PBS as control. […] The respective optimal concentrations were experimentally determined using the highest expression of stimulatory cell surface molecules as read-out system. The substances were incubated on the cells for 48 hours.
For immunophenotyping, an aliquot of DC was harvested after 7 days of culture and washed in PBS supplemented with 0.5% FCS and 10 mM NaN3 (SIGMA, Taufkirchen, Germany). After 30-minute-incubation at 4° C. with one of the following combination of labeled murine mAbs (isotype control FITC/isotype control PE, anti-CD83 FITC, anti-CD86 FITC/anti-CD40 PE, anti-CD 80 FITC/anti-HLA-DR PE, anti-CD1a FITC/anti-CD14 PE (all BD Biosciences, Heidelberg, Germany)) cells were washed and analysed on a EPICS XL-MCL (Beckmann Coulter, Krefeld, Germany) flow cytometer. Data were processed with the Expo 32 cytometer software (Beckmann Coulter). The expression of the cell surface molecules was shown in 1 parameter Histograms (FIG. 2) or evaluated using the median of fluorescence intensity (MFI) after subtraction of the values of the isotype control (Tab. 1).

[2] = system: monocyte derived DC; assay: Cytokines in DC culture supernatant (ELISA); type: cell-based, human; details: day 7 of culture; for IL-10 production in DC culture supernatant / IL-12p70 production in DC culture supernatant: compared to untreated DC
Method: as §1, §2
(§3) Cytokine concentrations were determined in DC culture supernatant collected on day 7 (TNF-α, IL-10, IL-12) and in the supernatant of the coculture of DC and autologous lymphocytes collected on day 10 (IFN-γ, IL-4). Duo-Set ELISA kits for the detection of IL-12p70, IL-10, TNF, IFN-γ, IL-4 and IL-5 were purchased (R&D Systems, Wiesbaden, Germany) and performed according to the manufacturers instructions.

[3] = system: autologous lymphocytes; assay: Cytokines in coculture of pretreated DC with autologous lymphocytes (ELISA); type: cell-based, human; details: for IFN-g in coculture supernatant / IL-4 in coculture supernatant: DC:lymphocytes 1:3; for IFN-g concentration in coculture supernatant / IL-4 concentration in coculture supernatant: DerP1 pulsed DC, day 3 of coculture
Method: as §2, §3
(§4) A portion of DC was used for coculture experiments with autologous lymphocytes from day 7 to day 13. To remove free stimulants, DC were harvested and washed twice. The cells were titrated in fresh medium in fresh round-bottom microtiterplates. 1×10^5 vital cryopreserved autologous lymphocytes were added at ratios of DC to lymphocytes from 1:3 to 1:2187 in a final volume of 200 μl in serum-free XVIVO-15. No further stimulants were given.

[4] = system: autologous lymphocytes; assay: Proliferation assay (3H-thymidine) in coculture of DC and autologous lymphocytes; type: cell-based, human; details: DC of allergics, allergen pulsed, 3H-thymidine day 12 for 18 hours
Method: as §4
The coculture was pulsed with 5 μCi/ml ^3H-thymidine (Amersham Buchler, Braunschweig, Germany) on day 12. After 18 hours, the cells were harvested on filtermats (Canberra-Packard, Dreieich, Germany). After drying, 20 μl of liquid scintillator (Can berra-Packard) were added and the plates were sealed. Counts per minute were determined on a Topcount Microplate Scintillation Counter (Can berra-Packard).

[5] = system: Balb/c mice; assay: Cytokines in BALF of OVA-sensitized and challenged mice (ELISA); type: in vivo, mouse; details: i.t. treatment day 27 (20 ng MALP-2, 10^4 U IFN-γ); 24 h after last allergen challenge
Method: Female Balb/c mice (Charles River, Sulzfeld, Germany) were used at the age of 6-8 weeks In all experiments. They were fed with ovalbumin-free laboratory food and tap water ad libitum and held in a regular 12 h dark/light cycle at a temperature of 22° C. Before experimental start, mice were acclimated for a period of 7 days.
(§5) Animals were sensitized and challenged as previously described (Glaab, T., A. Daser, A. Braun, U. Neuhaus-Steinmetz, H. Fabel, Y. Alarie, and H. Renz. 2001. Am. J. Physiol Lung Cell Mol. Physiol 280:L565-L573). Briefly, 10 μg ovalbumin (OVA, grade VI, Sigma, Müchen, Germany) was adsorbed to 1 mg Imject Alum (Pierce, Rockford, USA) in a total volume of 200 μl 0.9% NaCl solution and intraperitonealy injected three times on days 0, 14 and 21. Negative controls were injected with the solution lacking ovalbumin. All groups were subjected to inhalative allergen challenge on days 28 and 29. OVA-aerosols (grade V, Sigma) with a mean mass diameter of 1.49 μm were generated from a solution of 1 mg/ml OVA in 0.9% NaCl using a modified Pad Master system (Pari Werke, Sternberg, Germany) for 20 min. A lung deposition of approximately 8 μg OVA per mice in each session was calculated by a respiratory minute volume of 35 ml/min an a deposition factor of 0.15 as brought forward by Raabe et al. (Raabe, O. G., J. E. Bennick, M. E. Light, C. H. Hobbs, R. L. Thomas, and M. I. Tillery. 1973. Toxicol. Appl. Pharmacol. 26:264-273). 3 gives the test groups.
(§6) The trachea was canulated under direct vision, and a total volume of 50 μl containing the substances was instillated using a syringe.
(§7) Mice were killed with an i.p. injected overdose of pentobarbital-Na (Menial, Halbergmoos, Germany) after the lung function. In a satellite group, mice were left untouched after the last allergen challenge and kept for another 7 days. Afterwards, they were dissected in the same way as the main groups as follows. Blood was obtained via punction of the vena cava. Red blood cells were lysed by incubation with 0.9% NH4Cl (Sigma) in H2O for 10 min, white blood cells were automatically counted using an AcT8 counter (Beckman Coulter, Krefeld, Germany) and cytospins were prepared for differential cell count. The trachea was canulated and broncho-alveolar lavage (BAL) was performed with 0.8 ml ice cold saline two times. BAL cells were separated by centrifugation, counted and cytospins were prepared as described above. The BAL fluid (BALF) was aliquoted, shock frozen in liquid nitrogen and stored at −80° C. until the determination of cytokines. After BAL, the lungs were filled with Tissue-Tek O.C.T. (Sakura Finetek, Zoeterwoude, Netherlands) diluted 1:2 in PBS and the trachea was ligated. Next, the right lungs were excised, subsequently shock frozen in liquid nitrogen and stored at −80° C. for histology.
Duo-Set ELISA kits for the detection of IL-4, IL-5, IL-13 and IL-12p70 in the BAL supernatant were used (R&D Systems, Wiesbaden, Germany) according to the manufacturer's instructions.

[6] = system: Balb/c mice; assay: Differential cell count of BAL and blood, OVA-sensitized mice; type: in vivo, mouse; details: i.t. treatment day 27; 24 h after last allergen challenge
Method: as §5, §6, §7
Cytospins were stained applying the Pappenheim method according to standard protocols. […] 300 cells of each sample were determined, and absolute counts of macrophages, lymphocytes, eosinophilic and neutrophilic granulocytes were calculated.

[7] = system: Balb/c mice; assay: Lung function measurement: airway hyperreactivity to methacholine, head-out body plethysmography; type: in vivo, mouse; details: OVA-sensitized mice, 72 h after i.t. treatment, 24 h after last allergen challenge; mean±SEM
Method: as §5, with “OVA-aerosols (grade V, Sigma) with a mean mass diameter of 1.49 μm were generated from a solution of 1 mg/ml OVA in 0.9% NaCl using a modified Pad Master system (Pari Werke, Sternberg, Germany) for 20 min.” left out, “3 gives the test groups.” left out
24 hours after the last allergen challenge, airway hyperreactivity to methacholine (Mch) was determined in non-anaesthesized spontaneously breathing animals using head-out body plethysmography, as described before (Glaab, T., A. Daser, A. Braun, U. Neuhaus-Steinmetz, H. Fabel, Y. Alarie, and H. Renz. 2001. Am. J. Physiol Lung Cell Mol. Physiol 280:L565-L573). […] Respiratory signals were analyzed using the Hem 3.4 system (Notocord systems S. A., Crossy-sur-Seine, F).

[8] = system: autologous lymphocytes; details: DC treated in vitro; Weigt et al. 2003; cited from earlier work
[9] = DC of allergics, 48 h treatment, DerP1 100 ng/ml, MALP-2 100 pg/ml, IFN-g 5000 U/ml, mean±SEM of 6 experiments
[10] = allergic donors, pretreated DC:lymphocytes 1:3, mean±SEM of 6 experiments

Row | Molecule | Surface expression of CD80, CD86, CD40, HLA-DR, CD83 on DC [1] | TNF production in DC culture supernatant [2] | IL-10 production in DC culture supernatant [2] | IL-12p70 production in DC culture supernatant [2] | IFN-g in coculture supernatant ([3]; allergic donors) | IL-4 in coculture supernatant ([3]; allergic donors) | Lymphocyte proliferation [4] | IL-4 in BALF [5] | IL-5 and IL-13 in BALF [5] | IL-12p70 in BALF [5] | Eosinophils in BAL [6] | Number of BAL lymphocytes [6] | ED50: concentration of Mch needed to decrease the EF50 to 50% of baseline [7] [mg/ml Mch] | also measured
1 | IFN-γ: interferon gamma, IFNγ receptor agonist (Strathmann Biotec) | upregulated only HLA-DR | comparable moderate release | did not influence | did not influence | heightened lymphopcyte IFN-g production | little effect on IL-4 | increased proliferation | did not affect IL-4 | reduced the levels of IL-5 and IL-13 | failed to induce IL-12p70 | raised the eosinophil counts even further | increased | 17.67±3.05 | –
2 | macrophage activating lipopeptide-2 [MALP-2, reference compound] | significantly upregulated CD 40, CD 80, CD 83 and CD86 | comparable moderate release | induced IL-10 | no effect on IL-12 | lowered IFN-g less compared to allergen pulsed DC | reduced IL-4 to control levels | exceeded by MALP-2 | reduce all Th2-markers to the level of the unsensitized negative control | reduce all Th2-markers to the level of the unsensitized negative control | did not amplify IL-12p70 | raised the eosinophil counts even further | increased | 20.13±1.36 | Polarization of lymphocytes into T-helper (Th-1) cells [8]: no significant polarization; Proliferation of autologous lymphocytes [8]: marked proliferation
3 | DerP1: affinity purified major allergen of the house-dust mite Dermatophagoides pteronyssinus (protein, UniProt P08176 99-320, looked up) Peptidase 1: TNACSINGNAPAEIDLRQMRTVTPIRMQGGCGSCWAFSGVAATESAYLAYRNQSLDLAEQELVDCASQHGCHGDTIPRGIEYIQHNGVVQESYYRYVAREQSCRRPNAQRFGISNYCQIYPPNVNKIREALAQTHSAIAVIIGIKDLDAFRHYDGRTIIQRDNGYQPNYHAVNIVGYSNAQGVDYWIVRNSWDTNWGDNGYGYFAANIDLMMIEEYPYVVIL | no effect on the expression of the surface molecules | low levels | did not influence | did not influence | reduction of IFN-g | increase in IL-4 | only a very weak effect on lymphocyte proliferation | – | – | – | – | – | – | CD1a median fluorescence intensity [1, 9]: 265.2 +/− 106.8; CD 14 median fluorescence intensity [1, 9]: 17.6 +/− 9.8; CD 40 median fluorescence intensity [1, 9]: 733 +/− 160.5; CD 80 median fluorescence intensity [1, 9]: 47.2 +/− 18.9; CD 83 median fluorescence intensity [1, 9]: 47.3 +/− 9^; CD 86 median fluorescence intensity [1, 9]: 159.8 +/− 29.3; HLA-DR median fluorescence intensity [1, 9]: 426.9 +/− 131.9; IFN-γ production in coculture [3, 10]: 3.6 +/− 2.1; IL-4 production in coculture [3, 10]: 13.6 +/− 7.3; IFN-g concentration in coculture supernatant ([3]; allergics, ±SEM): 3.6 pg/mL; IL-4 concentration in coculture supernatant ([3]; allergics, ±SEM): 13.6 pg/m; IL-4 concentration in coculture supernatant ([3]; healthy donors): below the detection limit; IFN-g concentration in coculture supernatant ([3]; non-allergics (healthy donors), ±SEM): 8.7 pg/m
